“And” between values parts separate entries of the source, which are not always exact repeats. Identical values can stand only once.
Target: human KMO (Homo sapiens, UniProt O15229)
Assay: KMO MS Rapidfire assay (RapidFire high-throughput mass spectrometry, Method 1 or Method 2)
Description: KMO inhibition can be determined by MS Rapidfire assay performed on the human cloned enzyme as described herein.
pFastbac1 GST-KMO was transposed into the baculovirus genome using the BAC-to-BAC technology (Invitrogen) and bacmid DNA was prepared and transfected into Spodoptera frugiperda (Sf9) cells using Cellfectin II (Invitrogen).
A P1 virus stock was generated from a single clone and used to infect 3×1.5 L cultures of Sf9 cells in 3 L Corning Fernbach flasks. The Sf9 cells were grown in Hyclone SFX media (Thermo Scientific) to about 3×10^6 cells/ml and were infected at a nominal multiplicity of infection of 3. Cells were harvested after 48 hours and disrupted by blending in 50 mM HEPES, pH 7.4, 1 mM EDTA buffer containing protease inhibitors. A low speed spin (400 g) was used to remove cell debris, followed by a high speed spin (75 000 g) to pellet the membranes. The membranes were purified in a discontinuous sucrose density gradient by re-suspending in 10% (w/v) sucrose and layering over 40% (w/v) sucrose, both in the above buffer. This was centrifuged at 150 000 g and the purified membranes were taken from the interface, collected by centrifugation at 100 000 g, resuspended in buffer and aliquoted for storage at −80° C.
100 nL DMSO was dispensed into columns 6 and 18 for high and low controls, respectively, with prior inactivation of the enzyme in column 18 by pre-dispense of 30 μL of 0.5% (v/v) TFA.
Conditions for the assay of human KMO using isolated KMO-membranes were 50 mM HEPES, pH 7.5, 2 mM DTT, 1 mM EDTA, 100 μM CHAPS, 200 μM NADPH, 10 μM Kynurenine and 8 μg/ml KMO-membranes in a total reaction volume of 10 μL.
Assays were performed by initially dispensing 5 μL of a 2× Enzyme solution (16 μg/ml KMO-membranes in 50 mM HEPES, pH 7.5, 2 mM DTT, 2 mM EDTA, 200 μM CHAPS) into plates containing 100 nL compounds and incubating for 10 min at ambient temperature. Reactions were initiated by addition of 5 μL of 2× Substrate solution (400 μM NADPH, 20 μM Kynurenine in 50 mM HEPES, pH 7.5, 2 mM DTT) and incubated for 2 h at room temperature before quenching the reaction with 30 μL of 0.5% (v/v) TFA. Plates were centrifuged at 2500 rpm for 10 min before analysis. All additions were made using a Multidrop Combi dispenser (Thermo Fisher Scientific).
Quenched assay plates were transferred to a high-throughput RapidFire200 integrated autosampler/solid-phase extraction (SPE) system (Agilent Technologies, Wakefield, Mass.). […] Analytes were then eluted into the mass spectrometer, in a 3 s elution cycle, using 80% (v/v) acetonitrile/water containing 0.1% (v/v) formic acid, and the cartridge was then equilibrated by washing with water containing 0.1% (v/v) formic acid for 500 ms. This gave a total cycle time of 7 s, enabling analysis of a 384-well plate in approximately 45 min.
Both Kyn and 3-HK were detected using a Sciex AP14000 triple quadrupole mass spectrometer (Applied Biosystems, Concord, Ontario, Canada), equipped with an electrospray interface and operated in positive ion mode. […] The mass spectrometer used an ESI voltage of 5500 V and a source temperature of 600° C., with a dwell time of 50 ms for each transition.
Individual MRM transitions were saved as text files and the extracted ion chromatograms were integrated and processed using the RapidFire® peak integration software (version 3.6).

human KMO, sequence (O15229 whole entry): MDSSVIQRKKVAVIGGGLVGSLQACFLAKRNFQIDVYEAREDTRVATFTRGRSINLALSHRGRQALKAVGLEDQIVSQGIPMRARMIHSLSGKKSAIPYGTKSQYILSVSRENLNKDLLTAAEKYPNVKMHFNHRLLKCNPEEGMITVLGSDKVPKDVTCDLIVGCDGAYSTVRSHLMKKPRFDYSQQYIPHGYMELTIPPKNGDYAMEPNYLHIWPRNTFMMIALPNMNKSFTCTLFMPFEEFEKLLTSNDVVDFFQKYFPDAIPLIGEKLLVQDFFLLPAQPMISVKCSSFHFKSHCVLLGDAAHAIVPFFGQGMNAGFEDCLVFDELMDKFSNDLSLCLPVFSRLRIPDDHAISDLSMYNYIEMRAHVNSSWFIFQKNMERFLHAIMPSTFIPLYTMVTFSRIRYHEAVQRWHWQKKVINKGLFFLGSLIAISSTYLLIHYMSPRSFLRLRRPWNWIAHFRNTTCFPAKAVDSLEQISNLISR

IC50	Structure (SMILES)
≤ 10 nM	CCC(Oc1cc2sc(=O)n(CCC(=O)O)c2cc1Cl)c1ncc(C)cn1 (single isomer, unassigned) [Example 5, 3-{5-chloro-6-[1-(5-methylpyrimidin-2-yl)propoxy]-2-oxo-2,3-dihydro-1,3-benzothiazol-3-yl}propanoic acid]
≤ 10 nM	CCC(Oc1cc2sc(=O)n(CCC(=O)O)c2cc1Cl)c1ccc(C)cn1 (single isomer, unassigned) [Example 8, 3-{5-chloro-6-[1-(5-methylpyridin-2-yl)propoxy]-2-oxo-2,3-dihydro-1,3-benzothiazol-3-yl}propanoic acid]
≤ 10 nM	CC[C@@H](Oc1cc2sc(=O)n(CCC(=O)O)c2cc1Cl)c1ccc(Cl)cn1 (single isomer, unassigned) [Example 9, 3-{5-chloro-6-[1-(5-chloropyridin-2-yl)propoxy]-2-oxo-2,3-dihydro-1,3-benzothhiazol-3-yl}propanoic acid]
≤ 10 nM	CCC(Oc1cc2sc(=O)n(CCC(=O)O)c2cc1Cl)c1ncc(Cl)cn1 (single isomer, unassigned) [Example 11, 3-{5-chloro-6-[1-(5-chloropyrimidin-2-yl)propoxy]-2-oxo-2,3-dihydro-1,3-benzothiazol-3-yl}propanoic acid]
≤ 10 nM	CCC(Oc1cc2sc(=O)n(CCC(=O)O)c2cc1Cl)c1cccnn1 (single isomer, unassigned) [Example 14, 3-{5-chloro-2-oxo-6-[1-(pyridazin-3-yl)propoxy]-2,3-dihydro-1,3-benzothiazol-3-yl}propanoic acid]
≤ 10 nM	Cc1ccc(C(C)Oc2cc3sc(=O)n(CCC(=O)O)c3cc2Cl)nn1 (single isomer, unassigned) [Example 16, 3-{5-chloro-6-[1-(6-methylpyridazin-3-yl)ethoxy]-2-oxo-2,3-dihydro-1,3-benzothiazol-3-yl}propanoic acid]
≤ 10 nM	Cc1cnc(C(C)Oc2cc3sc(=O)n(CCC(=O)O)c3cc2Cl)nc1 (single isomer, unassigned) [Example 18, 3-{5-chloro-6-[1-(5-methylpyrimidin-2-yl)ethoxy]-2-oxo-2,3-dihydro-1,3-benzothiazol-3-yl}propanoic acid]
≤ 10 nM	CCC(Oc1cc2sc(=O)n(CCC(=O)O)c2cc1Cl)c1ccccn1 (single isomer, unassigned) [Example 19, 3-{5-chloro-2-oxo-6-[1-(pyridin-2-yl)propoxy]-2,3-dihydro-1,3-benzothiazol-3-yl}propanoic acid]
≤ 10 nM	CC(Oc1cc2sc(=O)n(CCC(=O)O)c2cc1Cl)c1ncc(Cl)cn1 (single isomer, unassigned) [Example 24, 3-{5-chloro-6-[1-(5-chloropyrimidin-2-yl)ethoxy]-2-oxo-2,3-dihydro-1,3-benzothiazol-3-yl}propanoic acid]
≤ 10 nM	CCc1ccc(C(C)Oc2cc3sc(=O)n(CCC(=O)O)c3cc2Cl)nc1 (single isomer, unassigned) [Example 25, 3-{5-chloro-6-[1-(5-ethylpyridin-2-yl)ethoxy]-2-oxo-2,3-dihydro-1,3-benzothiazol-3-yl}propanoic acid]
≤ 10 nM	CCC(Oc1cc2sc(=O)n(CCC(=O)O)c2cc1Cl)c1ncccn1 (single isomer, unassigned) [Example 29, 3-{5-chloro-2-oxo-6-[1-(pyrimidin-2-yl)propoxy]-2,3-dihydro-1,3-benzothiazol-3-yl}propanoic acid]
≤ 10 nM	CCC(Oc1cc2sc(=O)n(CCC(=O)O)c2cc1Cl)c1ccc(C)nn1 (single isomer, unassigned) [Example 32, 3-{5-chloro-6-[1-(6-methylpyridazin-3-yl)propoxy]-2-oxo-2,3-dihydro-1,3-benzothiazol-3-yl}propanoic acid]
≤ 10 nM and 1.26 nM	C[C@@H](Oc1cc2sc(=O)n(CCC(=O)O)c2cc1Cl)c1ccc(Cl)cn1 [Example 1, 3-(5-chloro-6-[(R)-1-(5-chloropyridin-2-yl)ethoxy]-2-oxobenzo[d]thiazol-3(2H)-yl)propanoic acid]
≤ 10 nM	Cc1cnc(COc2cc3sc(=O)n(CCC(=O)O)c3cc2Cl)nc1 [Example 4, 3-{5-chloro-6-[(5-methylpyrimidin-2-yl)methoxy]-2-oxo-2,3-dihydro-1,3-benzothiazol-3-yl}propanoic acid]
≤ 10 nM	O=C(O)CCn1c(=O)sc2cc(OCc3ccc(Cl)cn3)c(Cl)cc21 [Example 21, 3-{5-chloro-6-[(5-chloropyridin-2-yl)methoxy]-2-oxo-2,3-dihydro-1,3-benzothiazol-3-yl}propanoic acid]
≤ 10 nM	Cc1ccc(COc2cc3sc(=O)n(CCC(=O)O)c3cc2Cl)nn1 [Example 22, 3-{5-chloro-6-[(6-methylpyridazin-3-yl)methoxy]-2-oxo-2,3-dihydro-1,3-benzothiazol-3-yl}propanoic acid]
≤ 10 nM	O=C(O)CCn1c(=O)sc2cc(OCc3ncc(Cl)cn3)c(Cl)cc21 [Example 27, 3-{5-chloro-6-[(5-chloropyrimidin-2-yl)methoxy]-2-oxo-2,3-dihydro-1,3-benzothiazol-3-yl}propanoic acid]
≤ 10 nM	Cc1ccc(COc2cc3sc(=O)n(CCC(=O)O)c3cc2Cl)nc1 [Example 30, 3-{5-chloro-6-[(5-methylpyridin-2-yl)methoxy]-2-oxo-2,3-dihydro-1,3-benzothiazol-3-yl}propanoic acid]
≤ 10 nM	Cc1ccc([C@@H](C)Oc2cc3sc(=O)n(CCC(=O)O)c3cc2Cl)nc1 [Example 33, 3-{5-chloro-6-[(1R)-1-(5-methylpyridin-2-yl)ethoxy]-2-oxo-2,3-dihydro-1,3-benzothiazol-3-yl}propanoic acid]

— patent US20190100517A1, “COMPOUNDS” (GlaxoSmithKline Intellectual Property Development Limited, priority 2015, published 2019)
